Results published in patent publication US11090304B2 (Amgen Inc., priority 2018, dated 2021).
pIC50: −log10 of the molar value. Read-outs that look alike come from different tables or passages of the source.

Key:
[1] = test system: Phosphorylation of ERK1/2 in MIA PaCa-2 cells; assay: Phospho-ERK1/2 MSD assay in MIA PaCa-2 cells; type: cell-based
In short: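 Following a 2 or 4 h incubation with titrated compound, cells receive a 10 min pulse of 10 ng/mL EGF. Phospho-ERK1/2 in RIPA lysates is then quantified by MSD immunoassay, and IC50 values come from a four-parameter logistic model.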

[2] = test system: Phosphorylation of ERK1/2 in A549 cells; assay: Phospho-ERK1/2 MSD assay in A549 cells; type: cell-based; conditions: Homo sapiens
Protocol: For compounds in Table 89, the following assay conditions were employed:
Phospho-ERK1/2 MSD Assay:
Sixteen hours prior to compound treatment, MIA PaCa-2 or A549 cells were seeded in 96-well cell culture plates at a density of 25,000 cells/well and incubated at 37° C., 5% CO2. A compound dose-response titration was diluted in growth media, added to appropriate wells of a cell culture plate, and then incubated at 37° C., 5% CO2 for 2 or 4 hours (see Table 15). Following compound treatment, cells were stimulated with 10 ng/mL EGF (Roche 11376454001) for 10 min, washed with ice-cold Dulbecco's phosphate-buffered saline, no Ca^2+ or Mg^2+ (ThermoFisher Scientific 14190144), and then lysed in RIPA buffer (50 mM Tris-HCl pH 7.5, 1% Igepal, 0.5% sodium deoxycholate, 150 mM NaCl, and 0.5% sodium dodecyl sulfate) containing protease inhibitors (Roche 4693132001) and phosphatase inhibitors (Roche 4906837001). Phosphorylation of ERK1/2 in compound-treated lysates was assayed using Phospho-ERK1/2 Whole Cell Lysate kits (Meso Scale Discovery K151DWD) according to the manufacturer's protocol. Assay plates were read on a Meso Scale Discovery Sector Imager 6000, and data were analyzed using a 4-parameter logistic model to calculate IC50 values.

[3] = target: GDP-bound KRAS protein (aa 1-169), containing both G12C and C118A amino acid substitutions (Homo sapiens, UniProt P01116, C118A/G12C); assay: Coupled nucleotide exchange assay (SOS-mediated, AlphaScreen); type: biochemical; conditions: for Coupled exchange IC50 (5 min): 5 min compound pre-incubation
[4] = Homo sapiens, MIA PaCa-2, 2 h, read-out: p-ERK IC50 (2 h; MIA PaCa-2), 2 h compound treatment
[5] = A549, 2 h, read-out: p-ERK IC50 (2 h; A549), 2 h compound treatment
[6] = A549, 4 h, read-out: p-ERK IC50 (4 h; A549), 4 h compound treatment
[7] = read-out: p-ERK IC50 (2 h; MIA PaCa-2), 2 h compound treatment
[8] = Homo sapiens, MIA PaCa-2, 4 h, read-out: p-ERK IC50 (4 h; MIA PaCa-2), 4 h compound treatment

Chain of GDP-bound KRAS protein (aa 1-169), containing both G12C and C118A amino acid substitutions (P01116 1-169 isoform P01116-2 G12C/C118A): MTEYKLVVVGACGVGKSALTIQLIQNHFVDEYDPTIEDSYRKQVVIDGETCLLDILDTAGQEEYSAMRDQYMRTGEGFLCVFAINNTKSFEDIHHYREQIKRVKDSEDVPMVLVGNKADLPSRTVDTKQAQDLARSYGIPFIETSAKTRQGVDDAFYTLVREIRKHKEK

SMILES	pIC50 [1, 4]	pIC50 ([1]; read-out: p-ERK IC50 (4 h; MIA PaCa-2), 4 h compound treatment)	pIC50 [2, 5]	pIC50 [2, 6]	Coupled exchange IC50 (5 min) [3]	Coupled exchange IC50 (2 h) ([3]; 2 h compound pre-incubation) [µM]	pIC50 [1, 7]	pIC50 [1, 8]
C=CC(=O)N1CCN(c2nc(=O)n(-c3ccccc3C(C)C)c3cc(Br)c(Cl)cc23)[C@@H](C)C1 (single isomer, unassigned) [Example 9-17-2]	5.97	6.07	≤ 5.00	≤ 4.00	1.66 µM	0.163	–	–
C=CC(=O)N1CCN(c2nc(=O)n(-c3cccnc3C(C)C)c3nc(-c4ccccc4F)c(Cl)cc23)[C@@H](C)C1 (single isomer, unassigned) [Example 54-9-1]	–	–	≤ 5.00	–	0.302 | nda μM	–	7.12	–
C=CC(=O)N1CCN(c2nc(=O)n(-c3c(C)ncnc3C(C)C)c3nc(-c4ccccc4F)c(Cl)cc23)[C@@H](C)C1 (single isomer, unassigned) [Example 55-13-2]	7.26	–	≤ 5.00	–	0.02 | nda μM	–	–	–
C=CC(=O)N1CCN(c2nc(=O)n(-c3c(C)cc(N(C)C)cc3C(C)C)c3nc(-c4ccccc4F)c(Cl)cc23)[C@@H](C)C1 (single isomer, unassigned) [Example 55-16-2]	6.91	–	≤ 5.00	–	0.039 | nda μM	–	–	–
C=CC(=O)N1CCN(c2nc(=O)n(-c3nccnc3C(C)(C)C)c3nc(-c4c(O)cccc4F)c(Cl)cc23)[C@@H](C)C1 (single isomer, unassigned) [Example 55-23-2]	7.11	–	≤ 5.00	–	0.062 | nda μM	–	–	–
C=CC(=O)N1CCN(c2nc(=O)n(-c3ccccc3C(C)C)c3nc(-c4c(O)cccc4F)c(F)cc23)[C@@H](C)C1 (single isomer, unassigned) [Example 57-6-2]	–	–	≤ 5.00	–	0.208 | nda μM	–	7.00	–
C=CC(=O)N1CCN(c2nc(=O)n(-c3ccccc3C(C)C)c3nc(-c4ccccc4F)c(F)cc23)[C@@H](C)C1 (single isomer, unassigned) [Example 57-7-2]	6.63	–	≤ 5.00	–	0.384 | nda μM	–	–	–
C=CC(=O)N1CCN(c2nc(=O)n(-c3ccccc3C(C)C)c3nc(N4CCCCC4)c(Cl)cc23)[C@@H](C)C1 (single isomer, unassigned) [Example 69-1-2]	5.99	–	≤ 5.00	–	0.604 | nda μM	–	–	–
C=CC(=O)N1CCN(c2nc(=O)n(-c3ccccc3C(C)C)c3cc(-c4ccccc4F)c(Cl)cc23)CC1 [Example 88, 6-Chloro-7-(2-fluorophenyl)-1-(2-(2-propanyl)phenyl)-4-(4-(2-propenoyl)-1-piperazinyl)-2(1H)-quinazolinone]	6.63	–	–	4.05	–	–	–	6.61
C=CC(=O)N1CCN(c2nc(=O)n(CC(C)(C)C)c3cc(-c4c(O)cccc4F)c(Cl)cc23)CC1 [Example 89, 6-Chloro-1-(2,2-dimethylpropyl)-7-(2-fluoro-6-hydroxyphenyl)-4-(4-(2-propenoyl)-1-piperazinyl)-2(1H)-quinazolinone]	6.16	–	≤ 5.00	≤ 4.95	–	–	–	6.53

Now from value to molecule:

pIC50 [1, 4]	pIC50 ([1]; read-out: p-ERK IC50 (4 h; MIA PaCa-2), 4 h compound treatment)	pIC50 [2, 5]	pIC50 [2, 6]	Coupled exchange IC50 (5 min) [3]	Coupled exchange IC50 (2 h) ([3]; 2 h compound pre-incubation) [µM]	pIC50 [1, 7]	pIC50 [1, 8]	SMILES
7.57	–	≤ 5.00	–	0.029 | nda μM	–	–	–	C=CC(=O)N1C[C@H](C)N(c2nc(=O)n(-c3c(C)ccnc3C(C)C)c3nc(-c4c(O)cccc4F)c(F)cc23)[C@@H](C)C1 (single isomer, unassigned) [Example 75-3]
7.00	–	≤ 5.00	≤ 4.00	–	–	–	6.91	C=CC(=O)N1CCN(c2nc(=O)n(-c3c(CC)cccc3CC)c3nc(-c4c(C)ccc5[nH]ncc45)c(Cl)cc23)[C@@H](C)C1 [Example 54-66, 6-chloro-1-(2,6-diethylphenyl)-7-(5-methyl-1H-indazol-4-yl)-4-((2S)-2-methyl-4-(2-propenoyl)-1-piperazinyl) pyrido[2,3-d]pyrimidin-2(1H)-one]
≤ 5.00	–	≤ 5.00	–	–	–	–	–	C=CC(=O)N1CCN(c2nc(=O)n([C@@H]3CCc4ccccc43)c3nc(-c4ccccc4F)c(Cl)cc23)[C@@H](C)C1 [Example 54-67, 6-chloro-1-((1R)-2,3-dihydro-1H-inden-1-yl)-7-(2-fluorophenyl)-4-((2S)-2-methyl-4-(2-propenoyl)-1-piperazinyl) pyrido[2,3-d]pyrimidin-2(1H)-one]
–	–	–	≤ 4.00	–	–	–	5.25	C=CC(=O)N1CCN(c2nc(=O)n(-c3ccccc3C(C)C)c3nc(Cl)c(Cl)cc23)CC1 [Example 54-80, 6,7-dichloro-1-(2-(2-propanyl)phenyl)-4-(4-(2-propenoyl)-1-piperazinyl) pyrido[2,3-d]pyrimidin-2(1H)-one]
7.27	–	≤ 4.00	≤ 4.00	–	–	–	7.08	C=CC(=O)N1CCN(c2nc(=O)n(-c3ccccc3C(C)C)c3nc(-c4ccccc4Cl)c(Cl)cc23)[C@@H](C)C1 [Example 54-84, 6-chloro-7-(2-chlorophenyl)-4-((2S)-2-methyl-4-(2-propenoyl)-1-piperazinyl)-1-(2-(2-propanyl)phenyl)pyrido [2,3-d]pyrimidin-2(1H)-one]
6.80	–	≤ 4.00	–	–	–	–	–	C=CC(=O)N1CCN(c2nc(=O)n(-c3ccccc3C(C)C)c3nc(-c4ccc(F)cc4F)c(Cl)cc23)[C@@H](C)C1 [Example 54-85, 6-chloro-7-(2,4-difluorophenyl)-4-((2S)-2-methyl-4-(2-propenoyl)-1-piperazinyl)-1-(2-(2-propanyl)phenyl)pyrido [2,3-d]pyrimidin-2(1H)-one]
7.05	–	≤ 4.48	–	–	–	–	–	C=CC(=O)N1CCN(c2nc(=O)n(-c3ccccc3C(C)C)c3nc(-c4ccccc4F)c(Cl)cc23)[C@@H](C)C1 [Example 54-86, 6-chloro-7-(2-fluorophenyl)-4-((2S)-2-methyl-4-(2-propenoyl)-1-piperazinyl)-1-(2-(2-propanyl)phenyl)pyrido [2,3-d]pyrimidin-2(1H)-one]
–	–	–	4.42	–	–	–	5.35	C=CC(=O)N1CCN(c2nc(=O)n(-c3ccccc3C(C)C)c3nc(Oc4cccc(F)c4)c(Cl)cc23)CC1 [Example 60-23, 6-chloro-7-(3-fluorophenoxy)-1-(2-(2-propanyl)phenyl)-4-(4-(2-propenoyl)-1-piperazinyl)pyrido[2,3-d]pyrimidin-2(1H)-one]
–	–	–	4.34	–	–	–	4.97	C=CC(=O)N1CCN(c2nc(=O)n(C(C(C)C)C(C)C)c3nc(Cl)c(Cl)cc23)CC1 [Example 60-35, 6,7-dichloro-1-(2,4-dimethyl-3-pentanyl)-4-(4-(2-propenoyl)-1-piperazinyl)pyrido[2,3-d]pyrimidin-2(1H)-one]
6.94	–	≤ 4.00	–	–	–	–	–	C=CC(=O)N1CCN(c2nc(=O)n(-c3ccccc3C(C)C)c3cc(-c4ccccc4F)c(Cl)cc23)[C@@H](C)C1 [Example 62-1, (S)-4-(4-acryloyl-2-methylpiperazin-1-yl)-6-chloro-7-(2-fluorophenyl)-1-(2-isopropylphenyl)quinazolin-2(1H)-one]
–	–	–	4.19	–	–	–	5.73	C=CC(=O)N1CCN(c2nc(=O)n(-c3ccccc3C(C)C)c3nc(N4CCCCC4)c(Cl)cc23)[C@@H](C)C1 [Example 69-1, 6-Chloro-4-((2S)-2-methyl-4-(2-propenoyl)-1-piperazinyl)-7-(1-piperidinyl)-1-(2-(2-propanyl)phenyl)pyrido[2,3-d]pyrimidin-2(1H)-one]
